From patent US20230346775A1, “CANCER TREATMENT WITH TLR AGONIST” (BIRDIE BIOPHARMACEUTICALS, INC., priority 2020, published 2023)

Key:
Format in all cases: in vivo, human
[1] = tested on: unresectable or metastatic solid tumors; test: Efficacy of Compound A salt monotherapy, best response by irRECIST; settings: for patients with clinical benefit (irPR or irSD>18 weeks): 16 patients
Protocol: (§1) A treatment cycle is 21 days with 3 weekly infusions on days 1, 8, and 15.
Response was defined by best overall response—immune-related partial response (irPR), immune-related stable disease (irSD) with study duration over or under 18 weeks, and unconfirmed immune-related progressive disease (uirPD). Clinical benefit was defined as either partial response (irPR) or irSD >18 weeks. IP-10 cytokine induction levels of 32 patients evaluable for efficacy, were analyzed with respect to dosage in Cycle 1.

[2] = Clinical benefit (RECIST 1.1) versus AUC/Cmax, Compound A in combination with pembrolizumab; settings: human, combination with anti-PD-1 mAb (pembrolizumab)
Text: (§2) Clinical benefit was defined as radiographic complete response, partial response or stable disease >18 weeks based on Response Evaluation Criteria in Solid Tumors (RECIST) version 1.1.

advanced solid cancers [3] = test: as above; settings: combination with pembrolizumab
Text: as §2

IFN-γ = test: Plasma IFN-γ induction from baseline (MSD cytokine assay); settings: monotherapy, data not shown
Protocol: Pharmacodynamic analysis of Compound A included cytokine quantification and whole-blood RNA transcriptional profiling.
Collected plasma samples were quantified for cytokine biomarkers implicated in inflammatory responses, immune system regulation, and other biological processes. Assays for cytokine quantification were performed by Frontage Laboratories, Inc. utilizing Meso Scale Discovery (MSD) V-PLEX and U-PLEX plates pre-coated with capture antibodies for IL-5, IL-17A, IFN-γ, IL-2, IL-6, IL-8, IL-10, IL-12p70, TNF-α, IFN-α, IFN-β, and IP-10. Plasma samples were added directly to the plate to allow the analytes in the samples to bind to the capture antibodies. Electrochemiluminiscent label (MSD SOLFO-TAG™)-conjugated detection antibodies were then added to visualize the plates by a MSD plate reader. The luminescence intensity was measured to quantify the amount of captured analytes (or cytokine levels) in each sample.
Plasma samples were collected at Cycle 1, Cycle 3, and Cycle 6. Of the cytokines quantified, IP-10, IFN-γ, IL-6, IL-8, IL-10, and TNF-α had detectable levels. […] The greater peak cytokine level from either Cycle 1 Days 1 or 8 were selected for the analysis to be inclusive of all subjects.

[4] = Plasma IP-10 induction from baseline (MSD cytokine assay); settings: human, plasma, intravenous; read-out: minimum Cmax required to induce enough IP-10 that results in clinical benefit
Protocol: (§3) Pharmacodynamic analysis of Compound A included cytokine quantification and whole-blood RNA transcriptional profiling. Collected plasma samples were quantified for cytokine biomarkers implicated in inflammatory responses, immune system regulation, and other biological processes. Assays for cytokine quantification were performed by Frontage Laboratories, Inc. utilizing Meso Scale Discovery (MSD) V-PLEX and U-PLEX plates pre-coated with capture antibodies for IL-5, IL-17A, IFN-γ, IL-2, IL-6, IL-8, IL-10, IL-12p70, TNF-α, IFN-α, IFN-β, and IP-10. Plasma samples were added directly to the plate to allow the analytes in the samples to bind to the capture antibodies. Electrochemiluminiscent label (MSD SOLFO-TAG™)-conjugated detection antibodies were then added to visualize the plates by a MSD plate reader. The luminescence intensity was measured to quantify the amount of captured analytes (or cytokine levels) in each sample. […] Plasma samples were collected at Cycle 1, Cycle 3, and Cycle 6. Of the cytokines quantified, IP-10, IFN-γ, IL-6, IL-8, IL-10, and TNF-α had detectable levels. […] The greater peak cytokine level from either Cycle 1 Days 1 or 8 were selected for the analysis to be inclusive of all subjects. […] Response was defined by best overall response—immune-related partial response (irPR), immune-related stable disease (irSD) with study duration over or under 18 weeks, and unconfirmed immune-related progressive disease (uirPD). Clinical benefit was defined as either partial response (irPR) or irSD >18 weeks. […] For example, patient A dosed with dose level 2 with slower metabolism may have higher AUC and/or Cmax than patient B who was dosed with dose level 3, as a result patient A may produce higher level of IP-10 induction from baseline.

IP-10 = test: as above; settings: for mean IP-10 induction level from baseline: 16 patients, Cycle 1
Protocol: as §3

[5] = Clinical benefit (RECIST 1.1) versus AUC/Cmax, Compound A in combination with atezolizumab; settings: human, plasma, combination with anti-PD-L1 mAb (atezolizumab)
Text: as §2

advanced solid cancers [6] = test: as above; settings: combination with atezolizumab
Text: as §2

[7] = Phase 1 pharmacokinetics: Compound A free base in plasma after intravenous infusion
Text: as §1
The Mosteller Formula was used: BSA=√height (cm)×weight (kg)/3600.

[8] = Clinical benefit (RECIST 1.1) versus AUC/Cmax, Compound A monotherapy; settings: human, plasma, intravenous, Cmax of Compound A free base associated with greater likelihood of clinical benefit
Text: as §2

advanced solid cancers [9] = test: as above
Text: as §2

[10] = Phase 1 safety, drug-related adverse events, Compound A monotherapy
Text: Toxicities and adverse events are sometimes graded according to a 5-point scale. A grade 1 or mild toxicity is asymptomatic or induces only mild symptoms; may be characterized by clinical or diagnostic observations only; and intervention is not indicated. A grade 2 or moderate toxicity may impair activities of daily living (such as preparing meals, shopping, managing money, using the telephone, etc.) but only minimal, local, or non-invasive interventions are indicated. Grade 3 toxicities are medically significant but not immediately life-threatening; hospitalization or prolongation of hospitalization is indicated; activities of daily living related to self-care (such as bathing, dressing and undressing, feeding oneself, using the toilet, taking medications, and not being bedridden) may be impaired. Grade 4 toxicities are life-threatening and urgent intervention is indicated. Grade 5 toxicity produces an adverse event-related death.
as §1
Most common drug-related AE's were associated with immune activation.

[11] = IP-10 induction, >5-fold increase (n = 17)
[12] = No IP-10 induction, <5-fold increase (n = 19)

## CCOCc1nc2c(N)nc3ccccc3c2n1CC(C)(C)O [Compound A, 1-[4-amino-2-(ethoxymethyl)imidazo[4,5-c]quinolin-1-yl]-2-methylpropan-2-ol]
[1]; high AUC group (above 2.09 ng/mL*Day)
  patients with clinical benefit (irPR or irSD>18 weeks): 7 patients
[1]; high Cmax group (above 9.4 ng/mL)
  patients with clinical benefit (irPR or irSD>18 weeks): 7 patients
[1]; irRECIST, best response
  partial response [PR], number of subjects: 2
  stable disease [SD], number of subjects: 18
[1]; irRECIST, partial response + stable disease
  disease control rate: 63%
[1]; low AUC group (below 2.09 ng/mL*Day)
  patients with clinical benefit (irPR or irSD>18 weeks): two
[1]; low Cmax group (below 9.4 ng/mL)
  patients with clinical benefit (irPR or irSD>18 weeks): two
[1]; monotherapy
  progressive disease (PD) as best response: 38%
  progressive disease (PD) as best response, number: 12 subjects
  subjects with prolonged disease control (study duration >18 weeks): 22%
  subjects with prolonged disease control (study duration >18 weeks), number: 7 subjects
[1]; one subject on monotherapy
  longest study duration: 68 weeks
[2]; in vivo, intravenous
  Cmax: ≥ 7.65 ng/mL
[2]; plasma
  Cmax: 7.6 ng/mL
Advanced solid cancers [3]; high AUC group (above 2.19 ng/mL*Day), 15 patients
  patients with clinical benefit: 47%
Advanced solid cancers [3]; high Cmax group (above 7.65 ng/mL), 16 patients
  patients with clinical benefit: 44%
Advanced solid cancers [3]; low AUC group (below 2.19 ng/mL*Day), 11 patients
  patients with clinical benefit: 27%
Advanced solid cancers [3]; low Cmax group (below 7.65 ng/mL), 10 patients
  patients with clinical benefit: 30%
IFN-γ
  effect on blood IFN-γ levels: significantly increased
[4]
  Cmax: ≥ 9.4 ng/mL
IP-10; high AUC group (AUC above 2.09 ng/mL*Day)
  mean IP-10 induction level from baseline: 27.2 fold
IP-10; high Cmax group (Cmax above 9.4 ng/mL)
  mean IP-10 induction level from baseline: 31.9 fold
IP-10; low AUC group (AUC below 2.09 ng/mL*Day)
  mean IP-10 induction level from baseline: 3.68 fold
IP-10; low Cmax group (Cmax below 9.4 ng/mL)
  mean IP-10 induction level from baseline: 5.09 fold
IP-10; monotherapy, FIG. 2A
  effect on blood IP-10 levels: significantly increased
[5]; intravenous
  Cmax: ≥ 10.5 ng/mL
[5]
  Cmax: 10.5 ng/mL
Advanced solid cancers [6]; high AUC group (above 2.14 ng/mL*Day), 10 patients
  patients with clinical benefit: 50%
Advanced solid cancers [6]; high Cmax group (above 10.5 ng/mL), 10 patients
  patients with clinical benefit: 40%
Advanced solid cancers [6]; low AUC group (below 2.14 ng/mL*Day), 15 patients
  patients with clinical benefit: 20%
Advanced solid cancers [6]; low Cmax group (below 10.5 ng/mL), 15 patients
  patients with clinical benefit: 27%
[7]; five escalating dosages 0.30-0.90 mg/m^2 intravenously
  Compound A free base exposure versus dose: dose-dependent increase
[7]; human, plasma, iv
  half-life: ~4 h
[8]
  Cmax: ≥ 8.38 ng/mL
Advanced solid cancers [9]; high AUC group (above 3.42 ng/mL*Day), 14 patients
  patients with clinical benefit: 50%
Advanced solid cancers [9]; high Cmax group (above 8.38 ng/mL), 15 patients
  patients with clinical benefit: 47%
Advanced solid cancers [9]; low AUC group (below 3.42 ng/mL*Day), 18 patients
  patients with clinical benefit: 11%
Advanced solid cancers [9]; low Cmax group (below 8.38 ng/mL), 17 patients
  patients with clinical benefit: 12%
[10]; 0.30-0.90 mg/m^2
  dose dependence of toxicity: no apparent dose-dependent increase in toxicity
[10]; [11]
  Grade 1 AE, subjects (%): 4 (24%)
  Grade 2 AE, subjects (%): 7 (41%)
  Grade 3 AE, subjects (%): 2 (12%)
  No AE, subjects (%): 4 (24%)
[10]; [12]
  Grade 1 AE, subjects (%): 6 (32%)
  Grade 2 AE, subjects (%): 5 (26%)
  Grade 3 AE, subjects (%): 1 (5%)
  No AE, subjects (%): 7 (37%)
[10]; monotherapy, 36 subjects
  Grade 4 or 5 adverse events: no Grade 4 or 5 adverse events
  overall tolerability: well-tolerated
[10]; monotherapy, of 36 subjects
  subjects without any drug-related AE: 31%
  subjects without any drug-related AE, number: 11
